Data on 3 compounds can be found in patent publication US6218396A, “Substituted pyridino arylpiperazines useful in the treatment of benign prostatic hyperplasia” (Orth-McNeil Pharmaceutical, Inc., priority 1999, dated 2001).

The test system of test [1] is 5α-reductase. Conditions: cited from earlier work.
Test [2] deals with symptomatic BPH. Conditions: human, in vivo; cited from earlier work.
For test [3], the target named is T1, α1a-AR (Homo sapiens, UniProt P35348).
T1 construct: expressed in transfected cells; host or cells: COS cells (pcDNA3, transient DEAE-dextran transfection; membranes)
T1 sequence (P35348 1-466): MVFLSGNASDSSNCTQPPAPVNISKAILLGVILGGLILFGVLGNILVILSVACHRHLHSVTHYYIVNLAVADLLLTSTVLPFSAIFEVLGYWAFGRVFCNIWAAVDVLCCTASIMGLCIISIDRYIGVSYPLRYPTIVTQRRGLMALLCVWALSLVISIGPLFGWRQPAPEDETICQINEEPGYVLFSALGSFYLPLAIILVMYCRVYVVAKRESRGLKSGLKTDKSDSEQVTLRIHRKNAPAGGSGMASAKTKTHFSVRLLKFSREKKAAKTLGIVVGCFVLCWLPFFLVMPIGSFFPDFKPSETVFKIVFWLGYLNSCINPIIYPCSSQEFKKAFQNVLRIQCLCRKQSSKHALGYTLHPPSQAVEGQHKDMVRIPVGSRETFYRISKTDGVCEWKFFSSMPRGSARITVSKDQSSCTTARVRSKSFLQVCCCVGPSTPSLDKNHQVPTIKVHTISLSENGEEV
As to the kind of experiment: receptor binding assay, [125I]-HEAT, membranes of COS cells expressing α1a-AR. Conditions: [125I]-HEAT 50 pM, human α1a-AR in COS cell membranes; unit 'nanomolar'. The source says:
(§1) The DNA sequences of the three cloned human α1-AR subtypes have been published. […] We used published DNA sequence information to design primers for use in RT-PCR amplification of each subtype to obtain cloned cDNAs. Human poly A+ RNA was obtained from commercially available sources and included hippocampus and prostate samples, sources which have been cited in the literature. For the primary screen a radio ligand binding assay was used which employed membrane preparations from cells expressing the individual cloned receptor cDNAs. Radiolabeled ligands with binding activity on all three subtypes (non-selective) are commercially available ([125I]-HEAT, [3H]-prazosin).
(§2) Each α1 receptor subtype was cloned from poly A+ RNA by the standard method of reverse transcription-polymerase chain reaction (RT-PCR). The following sources of polyA+ RNA were used for the cloning of the α1 receptor subtypes: α1a -AR, human hippocampus and prostate, α1b -AR, human hippocampus, α1d -AR, human hippocampus. The resulting cDNAs were cloned into the pcDNA3 mammalian expression vector (Invitrogen Corp., San Diego Calif.). Each DNA was sequenced for verification and to detect any possible mutations introduced during the amplification process. Any deviation in sequence from the published consensus for each receptor subtype was corrected by site-directed mutagenesis.
(§3) The three α1-AR subtypes (a, b, d) were transfected into COS cells using a standard DEAE-dextran procedure with a chloroquine shock. In this procedure, each tissue culture dish (100 mm) was inoculated with 3.5×10^6 cells and transfected with 10 μg of DNA. Approximately 72 hours post-transfection, the cells were harvested and COS membranes were prepared. Transfected COS cells from 25 plates (100 mm) were scraped and suspended in 15 mL of TE buffer (50 mM Tris-HCl, 5 mM EDTA, pH7.4). The suspension was disrupted with a homogenizer. It was then centrifuged at 1000×g for 10 minutes at […]. The supernatant was centrifuged at 34,500×g for 20 minutes at 4° C. The pellet was resuspended in 5 mL TNE buffer (50 mM Tris-HCl, 5 mM EDTA, 150 mM NaCl, pH7.4). The resulting membrane preparation was aliquoted and stored at -70° C. The protein concentration was determined following membrane solubilization with TritonX-100.
(§4) The ability of each compound to bind to each of the α1-AR subtypes was assessed in a receptor binding assay. [125I]-HEAT, a non-selective α1-AR ligand, was used as the radiolabeled ligand. Each well of a 96-well plate received: 140 μL TNE, 25 μL [125I]-HEAT diluted in TNE (50,000 cpm; final concentration 50 pM), 10 μL test compound diluted in DMSO (final concentration 1 pM-10 μM), […] COS cell membrane preparation expressing one of the three α1-AR subtypes (0.05-0.2 mg membrane protein). The plate was incubated for 1 hour at room temperature and the reaction mixtures were filtered through a Packard GF/C Unifilter filter plate. The filter plate was dried for 1 hour in a vacuum oven. Scintillation fluid ([…]) was added to each well, and the filter plate was counted in a Packard Topcount scintillation counter. Data was analyzed using GraphPad Prism software.

Test [4] deals with T2, α1b-AR (Homo sapiens, UniProt P35368).
T2 construct: expressed in transfected cells; host or cells: COS cells (pcDNA3, transient DEAE-dextran transfection; membranes)
T2 sequence (P35368 1-520): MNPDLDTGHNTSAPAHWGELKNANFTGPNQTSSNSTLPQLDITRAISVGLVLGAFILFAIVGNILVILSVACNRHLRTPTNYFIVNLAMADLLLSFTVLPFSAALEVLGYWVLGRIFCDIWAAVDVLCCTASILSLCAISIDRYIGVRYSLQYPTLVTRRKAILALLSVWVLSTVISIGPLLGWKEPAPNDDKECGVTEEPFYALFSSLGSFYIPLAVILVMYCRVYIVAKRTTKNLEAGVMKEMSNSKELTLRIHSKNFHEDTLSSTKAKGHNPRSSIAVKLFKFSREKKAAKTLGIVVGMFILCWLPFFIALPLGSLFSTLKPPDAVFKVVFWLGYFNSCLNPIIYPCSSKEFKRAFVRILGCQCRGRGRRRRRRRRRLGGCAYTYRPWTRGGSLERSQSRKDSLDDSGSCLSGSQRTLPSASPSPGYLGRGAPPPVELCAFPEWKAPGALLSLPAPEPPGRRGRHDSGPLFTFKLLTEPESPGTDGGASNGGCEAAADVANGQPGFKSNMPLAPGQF
In words: receptor binding assay, [125I]-HEAT, membranes of COS cells expressing α1b-AR. As to conditions: [125I]-HEAT 50 pM, human α1b-AR in COS cell membranes; unit 'nanomolar'.
Description: as §1, §2, §3, §4

In test [5] the target is T3, α1d-AR (Homo sapiens, UniProt P25100).
T3 construct: expressed in transfected cells; host or cells: COS cells (pcDNA3, transient DEAE-dextran transfection; membranes)
T3 sequence (P25100 1-572): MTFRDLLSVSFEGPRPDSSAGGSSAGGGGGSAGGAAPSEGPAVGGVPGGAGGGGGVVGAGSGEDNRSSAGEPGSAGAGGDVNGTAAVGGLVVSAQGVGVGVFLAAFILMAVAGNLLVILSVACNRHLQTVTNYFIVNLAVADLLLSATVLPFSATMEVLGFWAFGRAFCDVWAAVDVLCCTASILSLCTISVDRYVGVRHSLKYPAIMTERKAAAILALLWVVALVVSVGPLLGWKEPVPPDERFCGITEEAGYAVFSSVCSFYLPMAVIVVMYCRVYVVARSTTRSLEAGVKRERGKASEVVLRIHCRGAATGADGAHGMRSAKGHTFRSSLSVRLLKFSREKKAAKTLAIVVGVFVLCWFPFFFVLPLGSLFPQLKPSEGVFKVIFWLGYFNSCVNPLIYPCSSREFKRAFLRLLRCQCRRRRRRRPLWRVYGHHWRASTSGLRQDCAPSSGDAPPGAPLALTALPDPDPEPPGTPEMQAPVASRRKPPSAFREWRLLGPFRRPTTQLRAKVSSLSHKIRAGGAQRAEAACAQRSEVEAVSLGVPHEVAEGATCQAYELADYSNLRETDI
As to the kind of experiment: receptor binding assay, [125I]-HEAT, membranes of COS cells expressing α1d-AR. As to conditions: [125I]-HEAT 50 pM, human α1d-AR in COS cell membranes; unit 'nanomolar'.
Description: as §1, §2, §3, §4

On to `CC(C)(C)NC(=O)[C@H]1CC[C@H]2[C@@H]3CC[C@H]4NC(=O)C=C[C@]4(C)[C@H]3CC[C@]12C` [finasteride], for which the “inhibition of 5α-reductase (in words)” value in test [1] is on record as “potent 5α-reductase inhibitor”. For the same compound, in test [2], the “effectiveness in treating symptomatic BPH (in words)” value is “only moderately effective”; the “serum and tissue concentrations of dihydrotestosterone (in words)” value is given as “marked decrease”; the “time for effects to become evident” value is given as 6-12 months.
Regarding `CC(C)Oc1ccccc1N1CCN(CC(O)CNC(=O)c2cccnc2Nc2ccccc2)CC1` (stereo not shown) [Compound 31], the half-maximal inhibitory concentration (IC50) in test [3] amounted to 25 nM; in test [4], 736 nM; in test [5], 25 nM.
For the compound `CC(C)Oc1ccccc1N1CCN(C[C@@H](O)CNC(=O)c2cccnc2Oc2ccccc2)CC1` [Compound 8], the results for the IC50 in test [3], in test [4] and in test [5] were 0.76 nM, 668 nM and 81 nM, respectively.

As usually defined, the IC50 is the concentration at which inhibition is half-maximal. Higher therefore signals weaker potency in that assay.
